Experimental data taken from patent US8476043B2, “Inhibitors for the soluble epoxide hydrolase” (The Regents of the University of California, priority 2004, dated 2013).
Read-outs that look alike come from different tables or passages of the source.

Target: T1, human sEH (Homo sapiens, UniProt P34913)
T1 construct: made in house
T1 sequence (P34913 1-555): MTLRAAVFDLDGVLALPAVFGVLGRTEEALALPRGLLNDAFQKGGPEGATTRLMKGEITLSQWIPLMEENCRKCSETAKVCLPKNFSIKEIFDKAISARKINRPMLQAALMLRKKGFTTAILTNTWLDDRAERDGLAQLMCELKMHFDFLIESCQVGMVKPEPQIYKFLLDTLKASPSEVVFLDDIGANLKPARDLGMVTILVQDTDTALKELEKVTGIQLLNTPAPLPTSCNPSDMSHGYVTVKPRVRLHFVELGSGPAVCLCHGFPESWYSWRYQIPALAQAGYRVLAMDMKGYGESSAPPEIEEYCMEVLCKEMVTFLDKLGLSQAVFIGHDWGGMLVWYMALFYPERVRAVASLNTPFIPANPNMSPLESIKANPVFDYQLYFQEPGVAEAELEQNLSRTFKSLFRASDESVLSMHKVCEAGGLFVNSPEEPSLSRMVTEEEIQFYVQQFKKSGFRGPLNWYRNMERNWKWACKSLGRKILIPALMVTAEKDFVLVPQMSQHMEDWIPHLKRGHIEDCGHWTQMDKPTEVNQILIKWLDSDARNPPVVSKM
Assay: sEH inhibition, fluorescent assay with cyano(6-methoxy-naphthalen-2-yl)methyl trans-[(3-phenyloxiran-2-yl)methyl]carbonate as substrate
Type: biochemical
Procedure: Recombinant mouse sEH and human sEH were produced in a baculovirus expression system and purified by affinity chromatography. […] Protein concentration was quantified by using the Pierce BCA assay using Fraction V bovine serum albumin as the calibrating standard.
Enzyme activity was measured by monitoring the appearance of 6-methoxy-2-naphthaldehyde. Assays were performed in triplicate. […] IC50 values were determined by regression of at least five datum points, with a minimum of two datum points in the linear region of the curve on either side of the IC50 values. The curve was generated from at least three separate runs, each in triplicate.

[1] = Table 18b, fluorescent assay with cyano(6-methoxy-naphthalen-2-yl)methyl trans-[(3-phenyloxiran-2-yl)methyl]carbonate as substrate, mean ± SD, read-out: IC50
[2] = Table 5, fluorescent-based assay, 0.96 nM human sEH, pH 7.0, [S] = 5 μM, read-out: Human sEH IC50

SMILES: O=C(NC12CC3CC(CC(C3)C1)C2)N[C@H]1CC[C@H](OC(=O)c2ccc([N+](=O)[O-])cc2)CC1 (relative stereo) [Compound 1076, trans-4-Nitro-benzoic acid 4-(3-tricyclo[3.3.1.13,7]decan-1-yl-ureido)-cyclohexyl ester]
- IC50 [1]: 10 ± 10 nM

SMILES: CCNC(=O)CCCCCCCCCCCNC(=O)NC12CC3CC(CC(C3)C1)C2 [Compound 792, 1-(1-Adamantyl)-3-(11-ethylaminocarbonylundecyl)urea]
- fold decrease in inhibition potency on human sEH (792 vs. 687, 1001, 1002 and 798 vs. the sulfonylamides): 1.5 fold
- IC50 [2]: 4.3 nM

SMILES: CC(C)=CCCC(C)CCOC(=O)CCCNC(=O)NC12CC3CC(CC(C3)C1)C2 (stereo not shown) [Compound 798, 4-(3-Adamantan-1-yl-ureido) butyric Acid 3,7-Dimethyl-oct-6-enyl Ester]
- IC50 [2]: 7.6 nM

SMILES: O=C(NC1CCCC(C(=O)NCCOCCO)C1)NC12CC3CC(CC(C3)C1)C2 (stereo not shown) [Compound 1022]
- IC50 [1]: 40 ± 10 nM

SMILES: O=C(CCCCCCOCCCOCCCc1ccccc1)NC12CC3CC(CC(C3)C1)C2 [Compound 1023]
- IC50 [1]: 70 ± 10 nM

SMILES: O=C(CCCCCCOCCCc1ccccc1)NC12CC3CC(CC(C3)C1)C2 [Compound 1027]
- IC50 [1]: 20 ± 10 nM

SMILES: O=C(CCCCCCOCCCCc1ccccc1)NC12CC3CC(CC(C3)C1)C2 [Compound 1028]
- IC50 [1]: 10 ± 10 nM

SMILES: O=C(NCCCCCOCCCCCN1CCS(=O)(=O)CC1)NC12CC3CC(CC(C3)C1)C2 [Compound 1031]
- IC50 [1]: 10 ± 10 nM

SMILES: O=C(CCCCCCOCCCCCc1ccccc1)NC12CC3CC(CC(C3)C1)C2 [Compound 1062]
- IC50 [1]: 10 ± 10 nM

SMILES: O=C(CC12CC3CC(CC(C3)C1)C2)NC1CCC(O)CC1 (stereo not shown) [Compound 1063-1]
- IC50 [1]: 50 ± 10 nM

SMILES: O=C(CC12CC3CC(CC(C3)C1)C2)NCCCCCOCCOCCOCc1ccccc1 [Compound 1063-2]
- IC50 [1]: 10 ± 10 nM

SMILES: O=C(CC12CC3CC(CC(C3)C1)C2)NC12CC3CC(CC(O)(C3)C1)C2 [Compound 1064]
- IC50 [1]: 40 ± 10 nM

SMILES: CCOC(=O)c1ccc(C(OC(=O)C2CCCC(NC(=O)NC34CC5CC(CC(C5)C3)C4)C2)c2ccccc2)cc1 (stereo not shown) [Compound 1066]
- IC50 [1]: 10 ± 10 nM

SMILES: CCOCCOCCOCCOC(=O)CCCCCCCCCCCNC(=O)NC12CC3CC(CC(C3)C1)C2 [Compound 1067]
- IC50 [1]: 10 ± 10 nM

SMILES: CCCCCOC(=O)CCCNC(=O)C12CC3CC(CC(C3)C1)C2 [Compound 1068]
- IC50 [1]: 390 ± 10 nM

SMILES: O=C(CCCCCCOCCc1ccccc1)NC12CC3CC(CC(C3)C1)C2 [Compound 1070]
- IC50 [1]: 30 ± 10 nM

SMILES: O=C(NC1CCC(OC(=O)c2ccccc2)CC1)NC12CC3CC(CC(C3)C1)C2 (stereo not shown) [Compound 1074]
- IC50 [1]: 10 ± 10 nM

SMILES: O=C(CCCCCNC(=O)NC12CC3CC(CC(C3)C1)C2)NC(C(=O)NC(C(=O)O)c1c[nH]c2ccccc12)c1ccccc1 (stereo not shown) [Compound 1084]
- IC50 [1]: 10 ± 10 nM

SMILES: O=C(NC1CCC(OC2CCCCC2)CC1)NC12CC3CC(CC(C3)C1)C2 (stereo not shown) [Compound 1097]
- IC50: 10 ± 10 nM

SMILES: COCOc1cc(F)c(COC2CCC(NC(=O)NC34CC5CC(CC(C5)C3)C4)CC2)c(F)c1 (stereo not shown) [Compound 1105]
- IC50 [1]: 10 ± 10 nM

SMILES: COCOc1cc(F)c(COC2CCC(NC(=O)NC34CC5CC(CC(C5)C3)C4)CC2)c(F)c1 (stereo not shown) [Compound 1106]
- IC50 [1]: 10 ± 10 nM

SMILES: CCCCCNC(=O)NCCOCc1ccc2ccccc2c1 [Compound 1116]
- IC50 [1]: 260 ± 10 nM

SMILES: O=C(NCCOCc1ccc2ccccc2c1)NCCOCc1ccc2ccccc2c1 [Compound 1117]
- IC50 [1]: 1120 ± 10 nM

SMILES: O=C(CCCCCCOCCCCCCc1ccccc1)NC12CC3CC(CC(C3)C1)C2 [Compound 1125]
- IC50 [1]: 10 ± 10 nM

SMILES: CCOCCOCCOCCCCCNC(=O)NC1C2CC3CC(C2)CC1C3 (stereo not shown) [Compound 1128]
- IC50 [1]: 10 ± 10 nM

SMILES: CCOCCOCCOCCCCCCNC(=O)NC12CC3CC(CC(C3)C1)C2 [Compound 1130]
- IC50 [1]: 10 ± 10 nM

SMILES: O=C(NCCCCCOCCCN1CCS(=O)(=O)CC1)NC12CC3CC(CC(C3)C1)C2 [Compound 1131]
- IC50 [1]: 10 ± 10 nM

SMILES: O=C(NC1CCC(O)CC1)C12CC3CC(CC(C3)C1)C2 (stereo not shown) [Compound 1142]
- IC50 [1]: 10 ± 10 nM

SMILES: O=C(NC1CCC(OCc2ccccc2C(F)(F)F)CC1)NC12CC3CC(CC(C3)C1)C2 (stereo not shown) [Compound 1143]
- IC50 [1]: 10 ± 10 nM

SMILES: O=C(NC1CCC(OCc2ccccc2OC(F)(F)F)CC1)NC12CC3CC(CC(C3)C1)C2 (stereo not shown) [Compound 1144]
- IC50 [1]: 10 ± 10 nM

SMILES: O=C(Nc1ccccc1)NC1CCC(OCc2c(F)cccc2F)CC1 (stereo not shown) [Compound 1147]
- IC50 [1]: 10 ± 10 nM

SMILES: O=C(Nc1ccccc1)NC1CCC(OCc2c(F)cccc2F)CC1 (stereo not shown) [Compound 1148]
- IC50 [1]: 10 ± 10 nM

SMILES: O=C(NC1CCC(OCc2ccccc2F)CC1)NC12CC3CC(CC(C3)C1)C2 (stereo not shown) [Compound 1150]
- IC50 [1]: 10 ± 10 nM

SMILES: O=C(NCCCC(=O)OC(c1ccccc1)c1ccccc1)NC12CC3CC(CC(C3)C1)C2 [Compound 1164]
- IC50 [1]: 10 ± 10 nM

SMILES: O=C(Nc1cccc(C(=O)NCCN2CCOCC2)c1)NC12CC3CC(CC(C3)C1)C2 [Compound 1165]
- IC50 [1]: 60 ± 10 nM

SMILES: O=C(Nc1cccc(C(=O)NCCCN2CCOCC2)c1)NC12CC3CC(CC(C3)C1)C2 [Compound 1166]
- IC50 [1]: 60 ± 10 nM

SMILES: CCOCCOCCOCCCCCNC(=O)NC1C2CC3CC(C2)CC1C3 (stereo not shown) [Compound 1172]
- IC50 [1]: 10 ± 10 nM

SMILES: O=C(NC1CCC(C(=O)O)CC1)NC12CC3CC(CC(C3)C1)C2 (stereo not shown) [Compound 1173]
- IC50 [1]: 10 ± 10 nM

SMILES: O=C(Nc1ccc(C(=O)O)cc1)NC12CC3CC(CC(C3)C1)C2 [Compound 1177]
- IC50 [1]: 10 ± 10 nM

SMILES: O=C(O)Cc1ccc(NC(=O)NC23CC4CC(CC(C4)C2)C3)cc1 [Compound 1178]
- IC50 [1]: 10 ± 10 nM

SMILES: O=C(Nc1cccc(C(=O)OC(c2ccccc2)c2ccccc2)c1)NC12CC3CC(CC(C3)C1)C2 [Compound 1182]
- IC50 [1]: 10 ± 10 nM

SMILES: O=C(Nc1ccc(O)cc1)NC12CC3CC(CC(C3)C1)C2 [Compound 1183]
- IC50 [1]: 20 ± 10 nM

SMILES: CCOC(=O)COc1ccc(NC(=O)NC23CC4CC(CC(C4)C2)C3)cc1 [Compound 1184]
- IC50 [1]: 10 ± 10 nM

SMILES: O=C(O)COc1ccc(NC(=O)NC23CC4CC(CC(C4)C2)C3)cc1 [Compound 1185]
- IC50 [1]: 140 ± 10 nM

SMILES: CCOC(=O)C(C)Oc1ccc(NC(=O)NC23CC4CC(CC(C4)C2)C3)cc1 (stereo not shown) [Compound 1186]
- IC50 [1]: 10 ± 10 nM

SMILES: CC(Oc1ccc(NC(=O)NC23CC4CC(CC(C4)C2)C3)cc1)C(=O)O (stereo not shown) [Compound 1187]
- IC50 [1]: 10 ± 10 nM

SMILES: O=C(Nc1cc(O)ccc1Cl)NC12CC3CC(CC(C3)C1)C2 [Compound 1189]
- IC50 [1]: 20 ± 10 nM

SMILES: COc1ccc(NC(=O)NC23CC4CC(CC(C4)C2)C3)cc1O [Compound 1191]
- IC50 [1]: 10 ± 10 nM

SMILES: CC(=O)c1cccc(NC(=O)NC23CC4CC(CC(C4)C2)C3)c1 [Compound 1192]
- IC50 [1]: 10 ± 10 nM

SMILES: CC(=O)Oc1cccc(NC(=O)NC23CC4CC(CC(C4)C2)C3)c1 [Compound 1193]
- IC50 [1]: 10 ± 10 nM

SMILES: CCC(=O)Oc1cccc(NC(=O)NC23CC4CC(CC(C4)C2)C3)c1 [Compound 1194]
- IC50 [1]: 10 ± 10 nM

SMILES: O=C(Nc1cccc(Oc2ccccc2)c1)NC12CC3CC(CC(C3)C1)C2 [Compound 1195]
- IC50 [1]: 10 ± 10 nM

SMILES: O=C(NCCCCCOCCN1CCOCC1)NC12CC3CC(CC(C3)C1)C2 [Compound 1196]
- IC50 [1]: 10 ± 10 nM

SMILES: O=C(Nc1ccc(OCCN2CCOCC2)cc1)NC12CC3CC(CC(C3)C1)C2 [Compound 1197]
- IC50 [1]: 10 ± 10 nM

SMILES: O=C(Nc1cccc(C(=O)NCCN2CCCC2)c1)NC12CC3CC(CC(C3)C1)C2 [Compound 1198]
- IC50 [1]: 10 ± 10 nM

SMILES: O=C(O)CCCCCNC(=O)NC12CC3CC(CC(C3)C1)C2 [Compound 1213]
- IC50 [1]: 170 ± 10 nM

SMILES: O=C(O)CCCCCCCNC(=O)NC12CC3CC(CC(C3)C1)C2 [Compound 1214]
- IC50 [1]: 10 ± 10 nM

SMILES: CC(=O)c1ccc(NC(=O)NC23CC4CC(CC(C4)C2)C3)cc1 [Compound 1217]
- IC50 [1]: 10 ± 10 nM

SMILES: O=C(Nc1cccc(C(=O)c2ccccc2)c1)NC12CC3CC(CC(C3)C1)C2 [Compound 1218]
- IC50 [1]: 10 ± 10 nM

SMILES: O=C(Nc1ccc(C(=O)c2ccccc2)cc1)NC12CC3CC(CC(C3)C1)C2 [Compound 1219]
- IC50 [1]: 10 ± 10 nM

SMILES: CC(=O)Oc1ccc(NC(=O)NC23CC4CC(CC(C4)C2)C3)cc1 [Compound 1220]
- IC50 [1]: 10 ± 10 nM

SMILES: CCC(=O)Oc1ccc(NC(=O)NC23CC4CC(CC(C4)C2)C3)cc1 [Compound 1221]
- IC50 [1]: 10 ± 10 nM

SMILES: O=C(Nc1cccc(OC(=O)c2ccccc2)c1)NC12CC3CC(CC(C3)C1)C2 [Compound 1222]
- IC50 [1]: 10 ± 10 nM
